Measurements reported in ChEMBL document CHEMBL3046761, “Synthesis of 27-oxo, 27-hydroxymilbemycins A3 and A4 and novel 27-alkoxymilbemycins A3 and A4 from milbemycins A3 and A4 and their acaricidal activities” (2002).

Tests used:
Tetranychus urticae [1] = experiment: Acaricidal activity against Tetranychus urticae (two-spotted spider mite) infected cowpea plant assessed as mortality at 1 ppm sprayed 24 hr post-infection measured after 3 days; format: functional
Tetranychus urticae [2] = experiment: Acaricidal activity against Tetranychus urticae (two-spotted spider mite) infected cowpea plant assessed as mortality at 10 ppm sprayed 24 hr post-infection measured after 3 days; format: functional

Compound | mortality at 1 ppm (Tetranychus urticae [1]) [%] | mortality at 10 ppm (Tetranychus urticae [2]) [%]
CCO[C@H]1O[C@@H]2[C@H](O)C(C)=C[C@H]3C(=O)O[C@H]4C[C@@H](C/C=C(\C)C[C@@H](C)/C=C/C=C\1[C@]23O)O[C@@]1(CC[C@H](C)[C@@H](CC)O1)C4 [27-ALPHAETHOXY MILBEMYCIN A4] | 25 | 81
CO[C@@H]1O[C@@H]2[C@H](O)C(C)=C[C@H]3C(=O)O[C@H]4C[C@@H](C/C=C(\C)C[C@@H](C)/C=C/C=C\1[C@]23O)O[C@@]1(CC[C@H](C)[C@@H](C)O1)C4 [27-BETAMETHOXY MILBEMYCIN A3] | 3 | 65
CC[C@H]1O[C@]2(CC[C@@H]1C)C[C@@H]1C[C@@H](C/C=C(\C)C[C@@H](C)/C=C/C=C3\C(O)O[C@@H]4[C@H](O)C(C)=C[C@@H](C(=O)O1)[C@]34O)O2 (some centres not stated) [27-HYDROXY MILBEMYCIN A4] | 11 | 53
CO[C@H]1O[C@@H]2[C@H](O)C(C)=C[C@H]3C(=O)O[C@H]4C[C@@H](C/C=C(\C)C[C@@H](C)/C=C/C=C\1[C@]23O)O[C@@]1(CC[C@H](C)[C@@H](C)O1)C4 [27-ALPHAMETHOXY MILBEMYCIN A3] | 8 | 72
CCO[C@@H]1O[C@@H]2[C@H](O)C(C)=C[C@H]3C(=O)O[C@H]4C[C@@H](C/C=C(\C)C[C@@H](C)/C=C/C=C\1[C@]23O)O[C@@]1(CC[C@H](C)[C@@H](CC)O1)C4 [27-BETAETHOXY MILBEMYCIN A4] | 0 | 77
CC[C@H]1O[C@]2(CC[C@@H]1C)C[C@@H]1C[C@@H](C/C=C(\C)C[C@@H](C)/C=C/C=C3\[C@@H](OC(C)C)O[C@@H]4[C@H](O)C(C)=C[C@@H](C(=O)O1)[C@]34O)O2 [27-ALPHAISOPROPOXY MILBEMYCIN A4] | 14 | 76
CC1=C[C@H]2C(=O)O[C@H]3C[C@@H](C/C=C(\C)C[C@@H](C)/C=C/C=C4\C(=O)O[C@H]([C@@H]1O)[C@@]42O)O[C@@]1(CC[C@H](C)[C@@H](C)O1)C3 [27-OXOMILBEMYCIN A3] | 3 | 3
CC[C@H]1O[C@]2(CC[C@@H]1C)C[C@@H]1C[C@@H](C/C=C(\C)C[C@@H](C)/C=C/C=C3\[C@@H](OC)O[C@@H]4[C@H](O)C(C)=C[C@@H](C(=O)O1)[C@]34O)O2 [27-ALPHAMETHOXY MILBEMYCIN A4] | 17 | 92
CC1=C[C@H]2C(=O)O[C@H]3C[C@@H](C/C=C(\C)C[C@@H](C)/C=C/C=C4\CO[C@H]([C@@H]1O)[C@@]42O)O[C@@]1(CC[C@H](C)[C@@H](C)O1)C3 [MILBEMYCIN A3] | 3 | 69
CC[C@H]1O[C@]2(CC[C@@H]1C)C[C@@H]1C[C@@H](C/C=C(\C)C[C@@H](C)/C=C/C=C3\[C@H](OC(C)C)O[C@@H]4[C@H](O)C(C)=C[C@@H](C(=O)O1)[C@]34O)O2 [27-BETAISOPROPOXY MILBEMYCIN A4] | 22 | 72
CC[C@H]1O[C@]2(CC[C@@H]1C)C[C@@H]1C[C@@H](C/C=C(\C)C[C@@H](C)/C=C/C=C3\[C@H](OC)O[C@@H]4[C@H](O)C(C)=C[C@@H](C(=O)O1)[C@]34O)O2 [27-BETAMETHOXY MILBEMYCIN A4] | 19 | 87
CC[C@H]1O[C@]2(CC[C@@H]1C)C[C@@H]1C[C@@H](C/C=C(\C)C[C@@H](C)/C=C/C=C(\C=O)[C@]3(O)[C@H](O)[C@H](O)C(C)=C[C@H]3C(=O)O1)O2 | 11 | 53
CC[C@H]1O[C@]2(CC[C@@H]1C)C[C@@H]1C[C@@H](C/C=C(\C)C[C@@H](C)/C=C/C=C3\C(=O)O[C@@H]4[C@H](O)C(C)=C[C@@H](C(=O)O1)[C@]34O)O2 [27-OXOMILBEMYCIN A4] | 4 | 11
CC[C@H]1O[C@]2(CC[C@@H]1C)C[C@@H]1C[C@@H](C/C=C(\C)C[C@@H](C)/C=C/C=C3\CO[C@@H]4[C@H](O)C(C)=C[C@@H](C(=O)O1)[C@]34O)O2 [MILBEMYCIN A4] | 32 | 100
CC1=C[C@H]2C(=O)O[C@H]3C[C@@H](C/C=C(\C)C[C@@H](C)/C=C/C=C4\C(O)O[C@H]([C@@H]1O)[C@@]42O)O[C@@]1(CC[C@H](C)[C@@H](C)O1)C3 (some centres not stated) [27-HYDROXY MILBEMYCIN A3] | 7 | 17
CC1=C[C@H]2C(=O)O[C@H]3C[C@@H](C/C=C(\C)C[C@@H](C)/C=C/C=C(\C=O)[C@]2(O)[C@H](O)[C@@H]1O)O[C@@]1(CC[C@H](C)[C@@H](C)O1)C3 | 7 | 17
